Source: patent US7022710B2, “A1 adenosine receptor antagonists” (CV Therapeutics, Inc., priority 2003, dated 2006)

Key:
human A1 AdoR = biological target: T1, human A1 AdoR (UniProt P30542); test: Adenosine receptor radioligand binding assay, A1; settings: competition with 0.5–1 nM 3H-CPX, membranes of CHO-A1 or DDT1 MF-2 (hamster, endogenous A1)
T1 sequence (P30542 1-326): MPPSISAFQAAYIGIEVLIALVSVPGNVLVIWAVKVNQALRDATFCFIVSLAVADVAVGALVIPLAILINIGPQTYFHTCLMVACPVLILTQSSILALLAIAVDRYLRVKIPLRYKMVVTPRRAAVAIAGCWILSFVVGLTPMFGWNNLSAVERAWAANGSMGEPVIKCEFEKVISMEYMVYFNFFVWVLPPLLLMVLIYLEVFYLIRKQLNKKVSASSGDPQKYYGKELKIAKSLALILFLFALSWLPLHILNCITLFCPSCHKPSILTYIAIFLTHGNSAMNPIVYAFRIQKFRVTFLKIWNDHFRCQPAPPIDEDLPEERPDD
Experimental: (§1) The cDNAs for human A1, A2A, A2B or A3 AdoRs were prepared by RT-PCR from total RNA of human cells or tissues and sequenced on both strands. The expression vector containing each of these cDNAs and a second vector containing a neomycin or puromycin-resistance gene were introduced to HEK-293 or CHO cells by Lipofectin-Plus (Life Technology). Colonies were selected by growing transfected cells in the presence of neomycin or puromycin. Stably transfected cells were maintained in Dulbecco's modified Eagle's medium (DMEM) or F-12 medium with 10% fetal bovine serum, 100 μg/ml penicillin, 100 μg/ml streptomycin and appropriate concentrations of neomycin or puromycin. These stably transfected cells were referred to as HEK-“AdoR” or CHO-“AdoR” depending on the receptors that they express. The cell lines used routinely were CHO-A1, HEK-A2A, HEK-A2B.and CHO-A3 cells. In addition, hamster DDT1 MF-2 cells that express endogenous A1 AdoRs were also used to determine the binding activities of compounds for A1 AdoRs.
(§2) Monolayers of transfected cells or DDT1 MF-2 were washed with phosphate buffered saline (PBS) and harvested in a buffer containing 10 mM HEPES (pH 7.4), 10 mM EDTA and protease inhibitors. The cells were homogenized in polytron for 1 minute at setting 4 and centrifuged at 29000 g for 15 minutes at 4° C. The cell pellets were washed with a buffer containing 10 mM HEPES (pH7.4), 1 mM EDTA and protease inhibitors, and were resuspended in the same buffer supplemented with 10% sucrose. Frozen aliquots were kept at −80° C.
(§3) The affinities of compounds for A1, A2A, A2B or A3 AdoRs were determined in competition studies using radioligands such as ^3H-CPX (A1 antagonist), or ^3H-CCPA (A1 agonist), ^3H-ZM241385 (A2A antagonist) or ^3H-CGS21680 (A2A agonist), ^3H-ZM241385 (A2B antagonist) or ^125I-AB-MECA (A3 agonist) and membranes of corresponding cells. For example, to determine the affinity for A1 AdoRs, the competition assays were started by mixing 0.5–1 nM ^3H-CPX with various concentrations of test compounds and 25–100 μg membrane proteins of CHO-A1 or DDT1 MF-2 in TE buffer (50 mM Tris and 1 mM EDTA) supplemented with 1 U/ml adenosine deaminase. The assays were incubated for 60–90 minutes, stopped by filtration onto GF/B filter plates using Packard Harvester and washed four times with ice-cold TM buffer (10 mM Tris, 1 mM MgCl2, pH 7.4). The amounts of radioligands that bound to the GF/B filter plates were determined by scintillation counting. Nonspecific binding was determined in the presence of 1–10 μM of cold ligands. Bmax and KD values were calculated using GraphPad software.

human A2B AdoR = biological target: T2, human A2B AdoR (Homo sapiens, UniProt P29275); test: Adenosine receptor radioligand binding assay, A2B; settings: competition with 3H-ZM241385, HEK-A2B cell membranes
T2 construct: expressed in transfected cells; host or cells: HEK-293 (HEK-A2B), membrane preparation
T2 sequence (P29275 1-332): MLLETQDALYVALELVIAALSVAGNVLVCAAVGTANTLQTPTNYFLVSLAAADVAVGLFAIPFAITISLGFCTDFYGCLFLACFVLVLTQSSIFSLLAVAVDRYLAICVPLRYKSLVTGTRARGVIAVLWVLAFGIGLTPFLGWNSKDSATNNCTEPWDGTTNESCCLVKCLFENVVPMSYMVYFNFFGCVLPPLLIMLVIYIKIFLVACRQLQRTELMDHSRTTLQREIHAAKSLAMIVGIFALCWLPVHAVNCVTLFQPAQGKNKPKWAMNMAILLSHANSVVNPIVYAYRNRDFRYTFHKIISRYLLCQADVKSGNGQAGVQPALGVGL
Experimental: as §1, §2, §3

Ki (human A1 AdoR) [nM]	Ki (human A2B AdoR) [nM]	Compound
182	1680	(6-amino-9-propyl-8-pyrazolylpurin-2-yl)[2-(2,5-dimethoxyphenyl)ethyl]amine
1790	7000	(4-{[(6-amino-9-propyl-8-pyrazolylpurin-2-yl)amino]methyl}phenyl)methan-1-ol
382	3640	(6-amino-9-propyl-8-pyrazolylpurin-2-yl)[2-(2-chlorophenyl)ethyl]amine
408	7000	{[3-(aminomethyl)phenyl]methyl}(6-amino-9-propyl-8-pyrazolylpurin-2-yl)amine
66	2300	(6-amino-9-propyl-8-pyrazolylpurin-2-yl)[2-(4-fluorophenyl)ethyl]amine
15	1000	CCn1c(-n2cccn2)nc2c(N)nc(NCc3ccccc3)nc21 [(6-amino-9-ethyl-8-pyrazolylpurin-2-yl)benzylamine]
113	500	(6-amino-9-propyl-8-pyrazolylpurin-2-yl)(2-phenylethyl)amine
28	160	(6-amino-9-propyl-8-pyrazolylpurin-2-yl)[2-(3-fluorophenyl)ethyl]amine
1090	5000	(6-amino-9-propyl-8-pyrazolylpurin-2-yl)[2-(4-chlorophenyl)ethyl]amine
